{"source": "ChEMBL document CHEMBL4251687", "about": "“Acyl Sulfonamides NaV1.7 Blockers Useful for the Treatment of Pain” (ACS Med Chem Lett, 2018)", "format_in_all_cases": "cell-based", "key": {"[1]": {"biological_target": "T1, Sodium channel protein type 9 subunit alpha (Homo sapiens, UniProt Q15858)", "T1 sequence (Q15858 whole entry)": "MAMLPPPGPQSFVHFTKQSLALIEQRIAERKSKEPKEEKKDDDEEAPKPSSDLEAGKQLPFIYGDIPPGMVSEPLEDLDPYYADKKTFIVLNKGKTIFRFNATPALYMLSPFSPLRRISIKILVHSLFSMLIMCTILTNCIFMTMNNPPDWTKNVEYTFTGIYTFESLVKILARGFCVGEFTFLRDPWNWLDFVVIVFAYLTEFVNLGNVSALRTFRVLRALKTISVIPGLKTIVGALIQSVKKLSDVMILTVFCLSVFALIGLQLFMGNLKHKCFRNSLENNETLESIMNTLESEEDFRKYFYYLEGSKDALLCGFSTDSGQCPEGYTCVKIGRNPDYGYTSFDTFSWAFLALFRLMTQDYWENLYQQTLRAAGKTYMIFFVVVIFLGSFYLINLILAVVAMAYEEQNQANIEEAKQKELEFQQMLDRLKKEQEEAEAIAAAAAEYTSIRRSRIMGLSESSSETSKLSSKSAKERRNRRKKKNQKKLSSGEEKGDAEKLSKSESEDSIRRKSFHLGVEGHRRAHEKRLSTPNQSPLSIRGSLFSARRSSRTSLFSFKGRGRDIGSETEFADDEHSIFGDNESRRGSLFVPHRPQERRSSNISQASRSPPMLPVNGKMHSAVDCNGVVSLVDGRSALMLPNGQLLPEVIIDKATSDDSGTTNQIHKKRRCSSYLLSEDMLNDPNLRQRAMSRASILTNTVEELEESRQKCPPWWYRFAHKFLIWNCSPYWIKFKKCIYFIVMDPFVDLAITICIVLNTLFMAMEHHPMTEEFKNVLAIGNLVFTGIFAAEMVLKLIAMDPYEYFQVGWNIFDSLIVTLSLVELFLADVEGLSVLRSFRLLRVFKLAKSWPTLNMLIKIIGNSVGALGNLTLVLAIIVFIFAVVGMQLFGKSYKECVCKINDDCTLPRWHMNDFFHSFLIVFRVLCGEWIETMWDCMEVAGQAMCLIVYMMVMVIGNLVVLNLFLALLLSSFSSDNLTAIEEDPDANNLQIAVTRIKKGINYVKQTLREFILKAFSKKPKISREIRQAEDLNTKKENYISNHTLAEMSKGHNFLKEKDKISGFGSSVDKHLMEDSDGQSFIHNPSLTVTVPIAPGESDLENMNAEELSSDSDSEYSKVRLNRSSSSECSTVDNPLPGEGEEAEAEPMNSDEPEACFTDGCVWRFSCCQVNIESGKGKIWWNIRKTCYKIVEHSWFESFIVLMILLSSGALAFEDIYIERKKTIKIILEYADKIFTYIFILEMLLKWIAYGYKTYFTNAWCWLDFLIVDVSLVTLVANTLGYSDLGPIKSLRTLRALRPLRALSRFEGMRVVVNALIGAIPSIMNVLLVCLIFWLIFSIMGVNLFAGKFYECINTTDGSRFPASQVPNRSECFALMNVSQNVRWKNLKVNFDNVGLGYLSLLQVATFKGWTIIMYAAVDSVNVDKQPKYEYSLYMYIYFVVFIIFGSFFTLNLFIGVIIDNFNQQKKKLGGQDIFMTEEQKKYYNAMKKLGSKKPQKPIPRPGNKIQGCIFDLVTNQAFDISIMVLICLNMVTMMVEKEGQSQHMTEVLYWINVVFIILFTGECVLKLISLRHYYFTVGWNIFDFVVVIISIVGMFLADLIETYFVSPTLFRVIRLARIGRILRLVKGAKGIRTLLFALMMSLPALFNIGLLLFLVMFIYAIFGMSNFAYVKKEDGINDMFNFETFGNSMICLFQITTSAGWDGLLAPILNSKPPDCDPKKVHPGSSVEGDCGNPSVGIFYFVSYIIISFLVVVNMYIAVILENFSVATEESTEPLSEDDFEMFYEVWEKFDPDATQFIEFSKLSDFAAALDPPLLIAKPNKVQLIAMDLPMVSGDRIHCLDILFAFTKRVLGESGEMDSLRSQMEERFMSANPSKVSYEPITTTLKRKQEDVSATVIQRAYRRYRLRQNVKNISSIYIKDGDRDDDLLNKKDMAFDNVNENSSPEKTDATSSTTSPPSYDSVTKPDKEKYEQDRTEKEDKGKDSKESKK", "experiment": "Inhibition of Nav1.7 (unknown origin) expressed in HEK293 cells at -60 mV holding potential measured after 600 secs by patch clamp method"}, "[2]": {"biological_target": "Sodium channel protein type 5 subunit alpha (Homo sapiens, UniProt Q14524)", "sequence (Q14524 whole entry)": "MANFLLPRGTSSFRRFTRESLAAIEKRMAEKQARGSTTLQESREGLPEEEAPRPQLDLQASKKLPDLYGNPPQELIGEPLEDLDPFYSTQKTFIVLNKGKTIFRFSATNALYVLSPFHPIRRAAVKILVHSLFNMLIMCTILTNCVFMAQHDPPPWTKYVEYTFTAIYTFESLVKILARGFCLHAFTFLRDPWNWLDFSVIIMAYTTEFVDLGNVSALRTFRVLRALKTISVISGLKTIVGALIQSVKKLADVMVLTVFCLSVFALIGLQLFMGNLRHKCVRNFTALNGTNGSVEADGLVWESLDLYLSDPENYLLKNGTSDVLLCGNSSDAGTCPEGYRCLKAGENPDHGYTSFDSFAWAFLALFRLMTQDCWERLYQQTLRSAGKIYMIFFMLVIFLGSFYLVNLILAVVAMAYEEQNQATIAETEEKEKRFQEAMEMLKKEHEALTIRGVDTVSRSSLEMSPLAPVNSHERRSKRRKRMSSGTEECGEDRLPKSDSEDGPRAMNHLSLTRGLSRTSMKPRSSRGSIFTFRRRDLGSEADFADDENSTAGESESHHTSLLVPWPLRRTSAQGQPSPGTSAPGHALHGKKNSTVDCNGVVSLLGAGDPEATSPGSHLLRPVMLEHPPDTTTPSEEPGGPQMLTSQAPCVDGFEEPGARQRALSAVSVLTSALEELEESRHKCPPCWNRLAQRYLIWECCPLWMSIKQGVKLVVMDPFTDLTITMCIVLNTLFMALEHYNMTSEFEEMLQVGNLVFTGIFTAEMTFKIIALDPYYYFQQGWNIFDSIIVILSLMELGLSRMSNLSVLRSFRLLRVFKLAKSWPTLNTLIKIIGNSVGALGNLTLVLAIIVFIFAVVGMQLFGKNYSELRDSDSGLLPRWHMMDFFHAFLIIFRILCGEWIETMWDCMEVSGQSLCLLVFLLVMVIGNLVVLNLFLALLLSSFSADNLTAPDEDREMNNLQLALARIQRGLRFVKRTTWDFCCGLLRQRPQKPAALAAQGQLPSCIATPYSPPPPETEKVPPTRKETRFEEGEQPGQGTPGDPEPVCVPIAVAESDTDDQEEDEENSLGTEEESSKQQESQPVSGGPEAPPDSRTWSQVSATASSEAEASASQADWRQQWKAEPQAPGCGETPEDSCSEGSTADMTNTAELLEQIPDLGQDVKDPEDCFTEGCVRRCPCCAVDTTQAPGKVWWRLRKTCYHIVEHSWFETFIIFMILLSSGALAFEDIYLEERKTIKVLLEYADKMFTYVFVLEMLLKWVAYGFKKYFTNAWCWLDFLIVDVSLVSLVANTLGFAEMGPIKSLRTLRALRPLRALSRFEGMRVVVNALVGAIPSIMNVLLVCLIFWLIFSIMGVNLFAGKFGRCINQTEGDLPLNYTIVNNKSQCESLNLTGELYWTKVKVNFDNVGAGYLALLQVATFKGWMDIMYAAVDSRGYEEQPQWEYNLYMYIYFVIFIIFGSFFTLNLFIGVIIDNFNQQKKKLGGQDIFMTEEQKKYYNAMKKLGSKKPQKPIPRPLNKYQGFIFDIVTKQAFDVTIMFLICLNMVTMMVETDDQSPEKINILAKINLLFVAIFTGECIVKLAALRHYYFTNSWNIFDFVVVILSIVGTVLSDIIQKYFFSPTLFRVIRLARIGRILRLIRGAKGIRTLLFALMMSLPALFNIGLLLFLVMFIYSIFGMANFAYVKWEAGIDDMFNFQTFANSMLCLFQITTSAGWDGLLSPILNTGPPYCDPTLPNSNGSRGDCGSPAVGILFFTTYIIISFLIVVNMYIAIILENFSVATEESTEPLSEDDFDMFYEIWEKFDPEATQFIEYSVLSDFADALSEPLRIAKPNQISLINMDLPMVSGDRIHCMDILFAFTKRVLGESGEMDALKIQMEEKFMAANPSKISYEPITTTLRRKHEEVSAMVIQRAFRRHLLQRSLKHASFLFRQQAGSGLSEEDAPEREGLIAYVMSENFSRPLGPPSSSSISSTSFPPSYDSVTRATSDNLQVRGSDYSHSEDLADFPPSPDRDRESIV", "experiment": "Inhibition of Nav1.5 (unknown origin) expressed in HEK293 cells at -40 mV holding potential measured after 600 secs by patch clamp method"}, "[3]": {"biological_target": "T1, Sodium channel protein type 9 subunit alpha", "experiment": "Displacement of [3H]-labelled radioligand from human Nav1.7 expressed in HEK293 cells measured after 24 hrs by liquid scintillation counting method"}}}
{"smiles": "CC(C)COc1ncc(-c2cn(C)c3cc(C(=O)NS(C)(=O)=O)ccc23)cc1Cl", "values": [{"measurement": "IC50", "setting": "[1]", "value": 90, "unit": "nM"}]}
{"smiles": "Cn1cc(-c2ccc(C(F)(F)F)cc2)c2cc(F)c(C(=O)NS(C)(=O)=O)cc21", "values": [{"measurement": "IC50", "setting": "[2]", "value": 30, "unit": "µM"}]}
{"smiles": "Cn1cc(-c2ccc(C(F)F)cc2)c2cc(F)c(C(=O)NS(=O)(=O)C3CC3)cc21", "values": [{"measurement": "IC50", "setting": "[3]", "value": 46, "unit": "nM"}]}
